According to patent US20070088043A1, “Novel HDAC inhibitors” (ORCHID RESEARCH LABORATORIES LIMITED., priority 2005, published 2007):
pIC50: −log10 of the molar value.

Experiments:
MDAMB231/U251 = experiment: Anti-cancer screen (MTT), MDAMB231/U251; format: cell-based; conditions: MDAMB231/U251 cells, 48 hours; for GI50: concentration to decrease % growth by 50%; for IC100: concentration to decrease % growth by 100%, read-out: MDAMB231/U251 TGI; for LC50: concentration to decrease % growth by 150%
How it was run: (§1)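 HCT116, NCIH460 and U251 cells (5000/well, DMEM + 10% FBS) seeded 24 h, then treated 48 h in triplicate at 0.01, 0.1, 1, 10, 100 μM; time-zero plate kept. MTT 3 h, formazan in DMSO read at 570 nm; GI50, TGI, LC50 derived.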

NCIH 460 cells = experiment: Anti-cancer screen (MTT), NCIH460; format: cell-based; conditions: Homo sapiens, NCI-H460, NCIH460 cells, 48 hours, MTT; for GI50: concentration to decrease % growth by 50%; for IC100: concentration to decrease % growth by 100%, read-out: NCIH460 TGI; for LC50: concentration to decrease % growth by 150%
How it was run: as §1

[1] = tested on: HDAC (Mouse Liver Extract); experiment: Histone Deacetylase (HDAC) Inhibition Assay using Boc-Lys (Ac)-AMC Substrate; format: biochemical; conditions: mouse liver enzyme, NA = No Activity; for HDAC Inhibition 1 μM / HDAC Inhibition 10 μM: in % (unit assumed)
How it was run: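 Mouse liver extract was the HDAC source. It was preincubated with inhibitor for 5 min at 30° C, then incubated with Boc-Lys(Ac)-AMC substrate for 30 min at 30° C. Trypsin stop solution was added for a 20–30 min development step, and released AMC was read by fluorescence (ex 360/365, em 440/460 nm) with blank subtraction.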

HCT 116 cells = experiment: Anti-cancer screen (MTT), HCT116; format: cell-based; conditions: Homo sapiens, HCT-116, HCT116 cells, 48 hours, MTT; for GI50: concentration to decrease % growth by 50%; for IC100: concentration to decrease % growth by 100%, read-out: HCT116 TGI; for LC50: concentration to decrease % growth by 150%
How it was run: as §1

[2] = tested on: NCIH460, HCT116, MDAMB231/U251; experiment: Anti-cancer screen, mean GI50 over the cell lines; format: cell-based; conditions: in µM
How it was run: as §1

In the case of `CC(=O)ON(C(C)=O)C(=O)CCCCCCC(=O)N1CCN(CC(=O)Nc2nc3ccc(C)cc3s2)CC1` [Example 38], the GI50 (MDAMB231/U251) was 0.4 µM, the IC100 (MDAMB231/U251) was 30 µM and the LC50 (MDAMB231/U251) was > 100 µM. For the same molecule, the GI50 (NCIH 460 cells) was 40 µM, the IC100 (NCIH 460 cells) was > 100 µM and the LC50 (NCIH 460 cells) was > 100 µM. The “HDAC Inhibition 1 μM” value [1] was 37.83, the “HDAC Inhibition 10 μM” value [1] was 84.23 and the GI50 (HCT 116 cells) was 25 µM. For the same molecule, the IC100 (HCT 116 cells) was 88 µM, the LC50 (HCT 116 cells) was > 100 µM and the “Mean GI50” value [2] was >100.

With `CC(=O)N(O)C(=O)CCCCCCC(=O)N1CCN(CC(=O)Nc2nc3ccccc3s2)CC1` [Example 39, 8-{4-[2-(1,3-Benzothiazol-2-ylamino)-2-oxoethyl]piperazin-1-yl}-N-acetyl-N-hydroxy-8-oxo octanamide] the GI50 (MDAMB231/U251) was 22 µM, the IC100 (MDAMB231/U251) was 52 µM and the LC50 (MDAMB231/U251) was 78 µM. The GI50 (NCIH 460 cells) was 44 µM, the IC100 (NCIH 460 cells) was 48 µM and the LC50 (NCIH 460 cells) was > 100 µM. For the same molecule, the “HDAC Inhibition 1 μM” value [1] was 81.4, the “HDAC Inhibition 10 μM” value [1] was 96.6 and the pIC50 [1] was 6.26. The GI50 (HCT 116 cells) was 8 µM, the IC100 (HCT 116 cells) was 57 µM and the LC50 (HCT 116 cells) was 98 µM. The “Mean GI50” value [2] was 24.7.

For `Cc1cccc2sc(NC(=O)CN3CCN(C(=O)CCCCCCC(=O)NOCc4ccccc4)CC3)nc12` [Example 40, 8-{4-[2-(4-Methyl-1,3-benzothiazol-2-ylamino)-2-oxoethyl]piperazin-1-yl}-N-hydroxybenzyl-8-oxo octanamide], the GI50 (MDAMB231/U251) was 0.1 µM, the IC100 (MDAMB231/U251) was 0.5 µM and the LC50 (MDAMB231/U251) was > 100 µM. For the same molecule, the GI50 (NCIH 460 cells) was 24 µM, the IC100 (NCIH 460 cells) was 85 µM and the LC50 (NCIH 460 cells) was > 100 µM. The “HDAC Inhibition 10 μM” value [1] was 4.1, the GI50 (HCT 116 cells) was 4.5 µM and the IC100 (HCT 116 cells) was 32 µM. For the same molecule, the LC50 (HCT 116 cells) was > 100 µM and the “Mean GI50” value [2] was 9.5.

In the case of `CC(=O)N(OCc1ccccc1)C(=O)CCCCCCC(=O)N1CCN(CC(=O)Nc2nc3c(C)cccc3s2)CC1` [Example 41], the GI50 (MDAMB231/U251) was 0.1 µM, the IC100 (MDAMB231/U251) was 6.2 µM and the LC50 (MDAMB231/U251) was > 100 µM. For the same molecule, the GI50 (NCIH 460 cells) was 26 µM, the IC100 (NCIH 460 cells) was 100 µM and the LC50 (NCIH 460 cells) was > 100 µM. For the same molecule, the “HDAC Inhibition 1 μM” value [1] was 0.6, the GI50 (HCT 116 cells) was 4.5 µM and the IC100 (HCT 116 cells) was 53 µM. For the same molecule, the LC50 (HCT 116 cells) was > 100 µM and the “Mean GI50” value [2] was 10.2.

In the case of `CC(=O)NCCCCCC(=O)N1CCN(CC(=O)Nc2nc3ccccc3s2)CC1` [Example 43], the GI50 (MDAMB231/U251) was > 100 µM, the IC100 (MDAMB231/U251) was > 100 µM and the LC50 (MDAMB231/U251) was > 100 µM. For the same molecule, the GI50 (NCIH 460 cells) was > 100 µM, the IC100 (NCIH 460 cells) was > 100 µM and the LC50 (NCIH 460 cells) was > 100 µM. For the same molecule, the “HDAC Inhibition 1 μM” value [1] was 2.61, the “HDAC Inhibition 10 μM” value [1] was 5.24 and the GI50 (HCT 116 cells) was 90 µM. For the same molecule, the IC100 (HCT 116 cells) was > 100 µM, the LC50 (HCT 116 cells) was > 100 µM and the “Mean GI50” value [2] was >100.

With `N[C@H](CO)C(=O)NCCCCCC(=O)N1CCN(CC(=O)Nc2nc3ccccc3s2)CC1` [Example 44] the GI50 (MDAMB231/U251) was > 100 µM, the IC100 (MDAMB231/U251) was > 100 µM and the LC50 (MDAMB231/U251) was > 100 µM. For the same molecule, the GI50 (NCIH 460 cells) was > 100 µM, the IC100 (NCIH 460 cells) was > 100 µM and the LC50 (NCIH 460 cells) was > 100 µM. For the same molecule, the “HDAC Inhibition 1 μM” value [1] was 5.45, the “HDAC Inhibition 10 μM” value [1] was 1.79 and the GI50 (HCT 116 cells) was > 100 µM. For the same molecule, the IC100 (HCT 116 cells) was > 100 µM, the LC50 (HCT 116 cells) was > 100 µM and the “Mean GI50” value [2] was >100.
